In brackets after ≈: the same amount, converted by molar mass. Activity calls are given as the source filed them. No cut-off for these calls is given here.

One assay deals with Streptococcus mutans. As to the kind of experiment: Antibacterial activity against Streptococcus mutans Ingbritt after 48 hrs by spectrophotometry. It counts as functional.
The test system of another assay is Streptococcus sanguinis. As to the kind of experiment: Antibacterial activity against Streptococcus sanguis after 48 hrs by spectrophotometry. The class given is functional.
Another assay has as its system Prevotella intermedia. As to the kind of experiment: Antibacterial activity against Prevotella intermedia after 48 hrs by spectrophotometry. The class given is functional, organism-based.
For a further assay, the system named is Porphyromonas gingivalis. As to the kind of experiment: Antibacterial activity against Porphyromonas gingivalis after 48 hrs by spectrophotometry. The class given is functional.

With `CC1=C2c3c(C)cc(O)c4c(O[C@@H]5O[C@H](CO[C@@H]6OC[C@@H](O)[C@H](O)[C@H]6O)[C@@H](O)[C@H](O)[C@H]5O)ccc(c34)OC2(O)c2c(O[C@@H]3O[C@H](CO[C@@H]4OC[C@@H](O)[C@H](O)[C@H]4O)[C@@H](O)[C@H](O)[C@H]3O)ccc(O)c2C1=O` (stereo not given in full), the MIC with Streptococcus mutans and against Streptococcus sanguinis was 1 µg/mL (≈ 1.02 µM) each time. The outcome in the assay on Prevotella intermedia and in the assay on Porphyromonas gingivalis was inactive.
For the compound `CC1=C2c3c(C)cc(O)c4c(O[C@@H]5O[C@H](CO[C@@H]6OC[C@@H](O)[C@H](O)[C@H]6O)[C@@H](O)[C@H](O)[C@H]5O)ccc(c34)OC2(O)c2c(O[C@@H]3O[C@H](CO)[C@@H](O)[C@H](O)[C@H]3O)ccc(O)c2C1=O` (stereo not given in full), the MIC with Streptococcus mutans and with Streptococcus sanguinis was 1 µg/mL (≈ 1.18 µM) throughout. Further, the result in the assay with Prevotella intermedia and in the assay on Porphyromonas gingivalis was inactive.
As to `C[n+]1cc2c3c(ccc2c2ccc4cc5c(cc4c21)OCO5)OCO3` [SANGUINARIUM], the MIC against Streptococcus mutans and in the assay on Porphyromonas gingivalis was 15 µg/mL throughout.
